Measurements from PubChem BioAssay (NCI).
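A five-concentration, 48-hour dose response in 96-well plates underlies each endpoint, interpolated linearly between surrounding concentrations. The concentration for 50% growth inhibition is given as GI50. TGI: concentration producing complete growth inhibition.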

Tests used:
Assay in all cases: NCI anticancer screen, dose series, 48 h
UACC-257 melanoma = system: UACC-257 melanoma
SF-539 CNS = system: SF-539 CNS
KM12 colon = system: KM12 colon
CAKI-1 renal = system: CAKI-1 renal
MOLT-4 leukemia = system: MOLT-4 leukemia
DU-145 prostate = system: DU-145 prostate
BT-549 breast = system: BT-549 breast
MDA-MB-231 breast = system: MDA-MB-231 breast
MDA-MB-435 = system: MDA-MB-435
NCI/ADR-RES ovarian = system: NCI/ADR-RES ovarian

| SMILES | TGI (UACC-257 melanoma) [µM] | TGI (SF-539 CNS) [µM] | TGI (KM12 colon) [µM] | TGI (CAKI-1 renal) [µM] | TGI (MOLT-4 leukemia) [µM] | TGI (DU-145 prostate) [µM] | TGI (BT-549 breast) [µM] | TGI (MDA-MB-231 breast) [µM] | TGI (MDA-MB-435) [µM] | TGI (NCI/ADR-RES ovarian) [µM] | GI50 (UACC-257 melanoma) [µM] | GI50 (DU-145 prostate) [µM] | GI50 (SF-539 CNS) [µM] | GI50 (BT-549 breast) [µM] | GI50 (KM12 colon) [µM] | GI50 (CAKI-1 renal) [µM] | GI50 (MDA-MB-231 breast) [µM] | GI50 (MOLT-4 leukemia) [µM] | GI50 (MDA-MB-435) [µM] | GI50 (NCI/ADR-RES ovarian) [µM] |
| --- | --- | --- | --- | --- | --- | --- | --- | --- | --- | --- | --- | --- | --- | --- | --- | --- | --- | --- | --- | --- |
| CCOc1ccccc1NC(=O)C1=C(C)NC(C)=C(C(=O)Nc2ccccc2OCC)C1c1cccc([N+](=O)[O-])c1 | > 100 | > 100 | > 100 | > 100 | > 100 |  |  |  |  |  |  |  |  |  |  |  |  |  |  |  |
| C[C@H]1CC[C@@H]2[C@@H](C)[C@H]3[C@H](C[C@H]4[C@@H]5CC=C6C[C@@H](O)CC[C@]6(C)[C@H]5CC[C@]34C)N2C1 | > 100 | > 100 | > 100 | > 100 | > 100 | > 100 | > 100 | > 100 | > 100 | > 100 |  |  |  |  |  |  |  |  |  |  |
| COc1ccc2c(c1)[nH]c1c3ccc(OC)cc3oc(=O)c21 | > 100 | > 100 | > 100 | > 100 | > 100 | > 100 | > 100 | > 100 | > 100 | > 100 |  |  |  |  |  |  |  |  |  |  |
| CN(C)CCOc1ccc2c(c1)C(=O)/C(=C\c1ncc([N+](=O)[O-])n1C)C2 | 3.19 | 3.35 | 3.21 | 2.4 | 1.65 | 0.661 | 0.529 | 2.33 | 0.643 | 4.55 | 0.917 | 0.234 | 1.4 | 0.146 | 1.19 | 0.386 | 0.418 | 0.358 | 0.209 | 1.43 |
| CCOC(=O)Cc1cc(=O)[nH]c(-n2[nH]c(C)c(CCO)c2=O)n1 | > 100 | > 100 | > 100 | > 100 |  | > 100 |  | > 100 | > 100 | > 100 |  |  |  |  |  |  |  |  |  |  |
| O=C(N/C(=C\c1ccc(F)cc1)c1nc2ccccc2[nH]1)c1ccccc1 | > 100 | > 100 | > 100 | > 100 | > 100 |  |  |  |  |  |  |  |  |  |  |  |  |  |  |  |
| Cc1c(Cl)cccc1NC(=O)C(=O)c1c(O)c2ccc(O)cc2oc1=O | > 100 | > 100 | > 100 | > 100 | > 100 |  |  |  |  |  |  |  |  |  |  |  |  |  |  |  |
| CC(CC(=O)Nc1ccc(NC(=O)CC(C)N=NC(N)=O)cc1)N=NC(N)=O (stereo not drawn) | > 100 | > 100 | > 100 | > 100 | > 100 |  |  |  |  |  |  |  |  |  |  |  |  |  |  |  |
| C[C@@H](C[C@H](CCO)c1ccccc1)c1ccc2ccccc2c1 |  | 3.11 | 2.83 | 2.54 | 1.61 | 2.84 | 3.1 | 3.19 | 2.95 | 3.4 |  | 1.47 | 1.68 | 1.68 | 1.4 | 1.28 | 1.6 | 0.356 | 1.56 | 1.66 |
| CCN1CCC(O)(/C=C/c2ccccc2)C(C(=O)/C=C/c2ccccc2)C1 (stereo not drawn) | 4.55 | 3.76 | 3.44 | 6.44 | 5.38 |  |  |  |  |  |  |  |  |  |  |  |  |  |  |  |
| COc1cc([C@@H]2c3cc4c(cc3[C@@H](NCc3cccc(F)c3)C3COC(=O)[C@@H]32)OCO4)cc(OC)c1O (stereo partly drawn) | 39.6 | 10.8 | 17.4 | 51.4 | 5.59 |  |  |  |  |  |  |  |  |  |  |  |  |  |  |  |
| Cc1ccc(C)c(NC(=O)C(=O)Nn2c(=S)[nH]c3ccccc3c2=O)c1 | > 100 | > 100 | > 100 | > 100 | > 100 |  |  |  |  |  |  |  |  |  |  |  |  |  |  |  |
| COc1cc(CCc2ccncc2)cc(OC)c1OC | > 100 | > 100 | > 100 | > 100 | > 100 |  |  |  |  |  |  |  |  |  |  |  |  |  |  |  |
| C=CCCC(=O)CC(=O)OCc1ccccc1 | > 100 | > 100 | > 100 | > 100 | > 100 |  |  |  |  |  |  |  |  |  |  |  |  |  |  |  |
| COC(=O)C#CC(N)=O | > 70.7 | > 100 | > 100 | > 67.1 | 62.6 |  |  |  |  |  |  |  |  |  |  |  |  |  |  |  |
| Cc1nc2sc(C(=O)Nc3ccccc3)c(N)c2cc1C(=O)c1ccccc1 | > 50 | > 50 | > 50 | > 50 | > 50 | > 50 | > 50 | > 50 |  | > 50 | 31.5 | 1.73 | 1.66 | 1.89 | 2.04 | 3.29 | 3.04 | 2 |  | 1.9 |
| CC1OC(=O)N2CCC=CC12 (stereo not drawn) | > 100 | > 100 | > 100 |  | > 100 |  |  |  |  |  |  |  |  |  |  |  |  |  |  |  |
| C/C(=N\Nc1n[nH]c(=S)n1N)c1c(O)cc(C)oc1=O | > 100 | > 100 | > 100 | > 100 | > 100 |  |  |  |  |  |  |  |  |  |  |  |  |  |  |  |
| CN1C/C(=C\c2ccc(C(=O)O)cc2)C(=O)/C(=C/c2ccc(C(=O)O)cc2)C1 | > 100 | > 100 | > 100 | > 100 | > 100 |  |  |  |  |  |  |  |  |  |  |  |  |  |  |  |
| C#C[C@@H](CCCC)OC(=O)N[C@H](C)c1ccccc1 | > 100 |  | > 100 | > 100 | > 100 |  |  |  |  |  |  |  |  |  |  |  |  |  |  |  |
| COC(=O)[C@@H](C)C[C@H](Cc1ccccc1)NC(=O)c1csc([C@@H](C[C@H](C(C)C)N(C)C(=O)[C@@H](NC(=O)[C@H]2CCCCN2C)C(C(F)(F)F)C(F)(F)F)OC(C)=O)n1 |  | 0.154 | 13.9 |  | > 16.7 | > 16.7 | 0.779 | 3.06 | 0.0219 | > 16.7 |  | 0.047 | 0.0397 | 0.054 | 0.0448 |  | 0.0734 | 0.0631 | 0.00437 | 0.346 |
| CC(=O)[O][Hg][c]1s[c]([Hg][O]C(C)=O)[c]([Hg][O]C(C)=O)[c]1[Hg][O]C(C)=O |  |  | > 100 |  | 17.5 |  |  |  |  |  |  |  |  |  | 22.6 |  |  | 2.26 |  |  |
| COc1ccc(/C=C2/CSC/C(=C/c3ccc(OC)c(OC)c3)C2=O)cc1OC | 16.9 | 10.6 | 3.26 | 12.8 | > 20.9 | 9.07 |  | 8.18 | > 100 |  |  |  |  |  |  |  |  |  |  |  |
| COC(=N)CCCl | > 100 | > 100 | > 100 | > 100 | > 100 | > 100 | > 100 |  |  | > 100 |  |  |  |  |  |  |  |  |  |  |
| Cc1nc(-n2nc(-c3ccccc3)cc2-c2ccccc2)sc1C(=O)CC(=O)C(=O)Nc1ccc(O)cc1 | > 100 | > 100 | > 100 | > 100 | > 100 |  |  |  |  |  |  |  |  |  |  |  |  |  |  |  |
